Laboratory results from patent US4112076A, “Epi-daunomycin and epi-adriamycin compounds and method of use” (priority 1975, dated 1978).
In brackets after ≈: the same amount, converted by molar mass. Entries after “also recorded” stand apart in the source; their conditions may differ. Read-outs that look alike come from different tables or passages of the source.

What was measured:
Hela cells = assay: Cloning efficiency of Hela cells in vitro (colony inhibition); assay type: cell-based; details: Homo sapiens
Protocol: After treatment for 2, 8 and 24 hours, Hela cells were seeded (200 cells per plate) and the number of colonies determined 8 days later. The inhibiting dose (ID50) represents the does which produces a 50% inhibition of colonies.
^a cloning efficiency of Hela cells

[1] = tested on: Moloney Sarcoma Virus (MSV); assay: Formation of foci by Moloney Sarcoma Virus (MSV) in vitro (antiviral action); assay type: cell-based; details: Fibroblast, 72 h
Protocol: (§1) The test compound was evaluated on mouse embryo fibroblast (MEF) cultures infected with MSV and on similar uninfected cultures. After a treatment of three days the inhibiting doses (ID50) were evaluated on cell proliferation in uninfected cultures (cytotoxic action) and on MSV foci formation in infected cultures (antiviral action).
^b inhibition of MSV foci formation

[2] = Proliferation of uninfected mouse embryo fibroblast (MEF) cultures (cytotoxic action); assay type: cell-based; details: mouse, mouse embryo fibroblasts
Protocol: as §1
(§2) ^c inhibition of mouse embryo fibroblasts proliferation

[3] = tested on: mouse embryo fibroblast (MEF) cultures; assay: as above; assay type: cell-based
Protocol: as §1, §2

[4] = tested on: Ascites lymphocitic P 388 Leukemia; assay: Ascites lymphocitic P 388 Leukemia in CDF1 mice, i.p. treatment days 1-9; assay type: in vivo, mouse (male CDF1); details: for Tumor evaluation, median survival time: control 12.1 days
L 1210 leukemia = assay: Ascitic leukemia L 1210, treatment i.p. on day 1; assay type: in vivo, mouse
From the text: (§3) Activity of 4-demethoxy-4'-epi-adriamycin on
(§4) ascitic leukemias. Treatment i.p. on day 1.
(§5) ^a Median survival time, % over untreated controls
(§6) ^b Long term survivors at 60 days

P 388 leukemia = assay: Ascitic leukemia P 388, treatment i.p. on day 1; assay type: in vivo, mouse
From the text: as §3, §4, §5, §6

solid sarcoma 180 = assay: Solid sarcoma 180, treatment i.v. on days 1 to 5; assay type: in vivo, mouse
From the text: as §3
solid sarcoma 180. Treatment i.v. on days 1 to 5.
Average data of 2 experiments.
^a Tumor weight on day 11, % over untreated controls.

Gross leukemia = assay: Gross leukemia, treatment i.v. on days 1 to 3; assay type: in vivo, mouse
From the text: On Gross leukemia (which is a systemic tumor transplanted i.v.), the increase in the life span of mice treated with the two compounds at equitoxic doses was similar.
Activity of 4-demethoxy-4'-epi-adriamycin
on Gross leukemia. Treatment i.v. on days
Average data of 2 experiments^a.
^a See legends to Table 7.

several in vitro systems = assay: Several in vitro systems, comparison with adriamycin; assay type: cell-based; details: Table 6
Protocol: (§7) The above compound was tested in comparison with adriamycin in several in vitro systems and experimental mouse tumors.

[5] = tested on: experimental mouse tumors; assay: Experimental mouse tumors (overall); assay type: in vivo; details: compared with adriamycin
Protocol: The test was carried out on groups of 10 mice (Swiss CD1). The compound under examination was administered intraperitoneally in varying doses to the test animals one day after intraperitoneal inoculation with 1×10^6 tumor cells/mouse.
as §7

Structure (SMILES): COc1cccc2c1C(=O)c1c(O)c3c(c(O)c1C2=O)C[C@@](O)(C(C)=O)C[C@@H]3O[C@H]1C[C@@H](N)[C@@H](O)[C@H](C)O1 [3'-4'-epi-daunomycin, 3',4'-epi-daunomycin]
- IC50 (Hela cells; 2 h, read-out: ID50 (action on Hela cells), 2 hours treatment, Table 1): 270000 ng/mL (≈ 512000 nM)
- IC50 (Hela cells; 8 h, read-out: ID50 (action on Hela cells), 8 hours treatment, Table 1): 220000 ng/mL (≈ 417000 nM)
- IC50 (Hela cells; 24 h, read-out: ID50 (action on Hela cells), 24 hours treatment, Table 1): 190000 ng/mL (≈ 360000 nM)
- IC50 ([1]; read-out: Antiviral action ID50): 45 ng/mL (≈ 85.3 nM)
- CC50 at 72 h ([2]; uninfected MEF, three days treatment, Table 2, read-out: Cytotoxic action ID50): 90 ng/mL (≈ 171 nM)
- cytotoxic activity in vitro compared with daunomycin [3]: less cytotoxic acitivity in vitro, when compared with daunomycin
- Toxicity (survivors at fifth day) ([4]; 1.56 mg/kg i.p., days 1-9): 6/6
- Tumor evaluation, T/C % ([4]; 1.56 mg/kg i.p., days 1-9): 129%
- Tumor evaluation, median survival time ([4]; 1.56 mg/kg i.p., days 1-9): 15.7 days
- Toxicity (survivors at fifth day) ([4]; 3.13 mg/kg i.p., days 1-9): 6/6
- Tumor evaluation, T/C % ([4]; 3.13 mg/kg i.p., days 1-9): 142%
- Toxicity (survivors at fifth day) ([4]; 6.25 mg/kg i.p., days 1-9): 6/6
- Tumor evaluation, T/C % ([4]; 6.25 mg/kg i.p., days 1-9): 155%
- Toxicity (survivors at fifth day) ([4]; 12.5 mg/kg i.p., days 1-9): 6/6
- Tumor evaluation, T/C % ([4]; 12.5 mg/kg i.p., days 1-9): 173%
- Tumor evaluation, median survival time ([4]; 12.5 mg/kg i.p., days 1-9): 21 days
- Toxicity (survivors at fifth day) ([4]; 25 mg/kg i.p., days 1-9): 6/6
- Tumor evaluation, T/C % ([4]; 25 mg/kg i.p., days 1-9): 231%
- Tumor evaluation, median survival time ([4]; 25 mg/kg i.p., days 1-9): 28 days
- Cures ([4]; 25 mg/kg i.p., days 1-9, evaluated day 20): 1
- anti-tumor activity in tumor bearing animals ([4]; Table 3): distinct anti-tumor activity

Structure (SMILES): C[C@@H]1O[C@@H](O[C@H]2C[C@](O)(C(=O)CO)Cc3c(O)c4c(c(O)c32)C(=O)c2ccccc2C4=O)C[C@H](N)[C@H]1O [4-demethoxy-4'-epi-adriamycin]
- IC50 (Hela cells; 2 (hours) treatment, Table 6, read-out: ID50, cloning efficiency of Hela cells): 0.35 ng/mL (≈ 0.682 nM)
- IC50 (Hela cells; 8 (hours) treatment, Table 6, read-out: ID50, cloning efficiency of Hela cells): 0.1 ng/mL (≈ 0.195 nM)
- IC50 (Hela cells; 24 (hours) treatment, Table 6, read-out: ID50, cloning efficiency of Hela cells): 0.03 ng/mL (≈ 0.0584 nM)
- IC50 ([1]; read-out: ID50, inhibition of MSV foci formation): < 0.003 ng/mL
- CC50 at 72 h [2]: < 0.003 ng/mL
- LTS (long term survivors at 60 days) (L 1210 leukemia; 0.25 mg/Kg i.p. day 1): 0/11
- T/C % (median survival time, % over untreated controls) (L 1210 leukemia; 0.25 mg/Kg i.p. day 1): 155%
- Toxic deaths (L 1210 leukemia; 0.25 mg/Kg i.p. day 1): 0/11
- LTS (long term survivors at 60 days) (L 1210 leukemia; 0.5 mg/Kg i.p. day 1): 2/11
- T/C % (median survival time, % over untreated controls) (L 1210 leukemia; 0.5 mg/Kg i.p. day 1): 166%
- Toxic deaths (L 1210 leukemia; 0.5 mg/Kg i.p. day 1): 0/11
- LTS (long term survivors at 60 days) (L 1210 leukemia; 1 mg/Kg i.p. day 1): 0/11
- T/C % (median survival time, % over untreated controls) (L 1210 leukemia; 1 mg/Kg i.p. day 1): 133%
- Toxic deaths (L 1210 leukemia; 1 mg/Kg i.p. day 1): 11/11
- antitumor activity at the optimal (non-toxic) dose vs adriamycin (L 1210 leukemia; L 1210): comparable to that of adriamycin
- LTS (long term survivors at 60 days) (P 388 leukemia; 0.25 mg/Kg i.p. day 1): 0/10
- T/C % (median survival time, % over untreated controls) (P 388 leukemia; 0.25 mg/Kg i.p. day 1): 143%
- Toxic deaths (P 388 leukemia; 0.25 mg/Kg i.p. day 1): 0/10
- LTS (long term survivors at 60 days) (P 388 leukemia; 0.5 mg/Kg i.p. day 1): 1/10
- T/C % (median survival time, % over untreated controls) (P 388 leukemia; 0.5 mg/Kg i.p. day 1): 162%
- Toxic deaths (P 388 leukemia; 0.5 mg/Kg i.p. day 1): 1/10
- LTS (long term survivors at 60 days) (P 388 leukemia; 1 mg/Kg i.p. day 1): 0/10
- T/C % (median survival time, % over untreated controls) (P 388 leukemia; 1 mg/Kg i.p. day 1): 162%
- Toxic deaths (P 388 leukemia; 1 mg/Kg i.p. day 1): 8/10
- antitumor activity at the optimal (non-toxic) dose vs adriamycin (P 388 leukemia; P 388): comparable to that of adriamycin
- T/C % (tumor weight on day 11, % over untreated controls) (solid sarcoma 180; 0.06 mg/Kg i.v. days 1 to 5): 87.3%
- Toxic deaths (solid sarcoma 180; 0.06 mg/Kg i.v. days 1 to 5): 0/10
- T/C % (tumor weight on day 11, % over untreated controls) (solid sarcoma 180; 0.12 mg/Kg i.v. days 1 to 5): 85.1%
- Toxic deaths (solid sarcoma 180; 0.12 mg/Kg i.v. days 1 to 5): 2/16
- T/C % (tumor weight on day 11, % over untreated controls) (solid sarcoma 180; 0.25 mg/Kg i.v. days 1 to 5): 41.9%
- Toxic deaths (solid sarcoma 180; 0.25 mg/Kg i.v. days 1 to 5): 4/19
- Toxic deaths (solid sarcoma 180; 0.5 mg/Kg i.v. days 1 to 5): 9/9
- inhibition of tumor growth on the eleventh day vs adriamycin (solid sarcoma 180; equitoxic doses): slightly lower than that of adriamycin
- LTS (long term survivors) (Gross leukemia; 0.35 mg/Kg i.v. days 1 to 3): 2/20
- T/C % (median survival time, % over untreated controls) (Gross leukemia; 0.35 mg/Kg i.v. days 1 to 3): 153%
- Toxic deaths (Gross leukemia; 0.35 mg/Kg i.v. days 1 to 3): 0/10
- LTS (long term survivors) (Gross leukemia; 0.45 mg/Kg i.v. days 1 to 3): 0/20
- T/C % (median survival time, % over untreated controls) (Gross leukemia; 0.45 mg/Kg i.v. days 1 to 3): 196%
- Toxic deaths (Gross leukemia; 0.45 mg/Kg i.v. days 1 to 3): 0/20
- LTS (long term survivors) (Gross leukemia; 0.55 mg/Kg i.v. days 1 to 3): 0/10
- T/C % (median survival time, % over untreated controls) (Gross leukemia; 0.55 mg/Kg i.v. days 1 to 3): 186%
- Toxic deaths (Gross leukemia; 0.55 mg/Kg i.v. days 1 to 3): 0/10
- LTS (long term survivors) (Gross leukemia; 0.6 mg/Kg i.v. days 1 to 3): 0/10
- T/C % (median survival time, % over untreated controls) (Gross leukemia; 0.6 mg/Kg i.v. days 1 to 3): 214%
- Toxic deaths (Gross leukemia; 0.6 mg/Kg i.v. days 1 to 3): 1/10
- LTS (long term survivors) (Gross leukemia; 0.65 mg/Kg i.v. days 1 to 3): 0/10
- T/C % (median survival time, % over untreated controls) (Gross leukemia; 0.65 mg/Kg i.v. days 1 to 3): 207%
- Toxic deaths (Gross leukemia; 0.65 mg/Kg i.v. days 1 to 3): 0/10
- increase in life span vs adriamycin (Gross leukemia; equitoxic doses): similar
- in vitro activity compared with adriamycin (several in vitro systems): definitely more active than adriamycin
- antitumor activity ([5]; all the systems tested): remarkable antitumor activity; also recorded: higher antitumor activity in mice, similar to adriamycin
- factor by which active doses are lower than those of adriamycin ([5]; mice): 10 times
